From patent publication US6979686B1, “Substituted pyrazoles as p38 kinase inhibitors” (Pharmacia Corporation, priority 2001, dated 2005)
Like-named read-outs stand apart in the source and are kept apart here. Each block holds one compound with its values, some of them ahead of it.

Tests used:
[1] = tested on: TNF-α, U937 human histiocytic lymphoma cell line; experiment: LPS stimulation of TNF production by U937 cells; assay type: cell-based; conditions: for inhibition at 1 µM: U-937, @ 1.0 uM, read-out: U937 Cell % inhib @ conc.; for U937 Cell % inhib @ conc. / U937 Cell % inhib @ conc. (uM): @ 1.0 uM
Experimental: Maintenance and Differentiation of the U937 Human Histiocytic Lymphoma Cell Line:
Fifty million cells in 100 ml media were induced to terminal monocytic differentiation by 24 hour incubation with 20 ng/ml phorbol 12-myristate 13-acetate (Sigma). The cells were washed by centrifugation (200×g for 5 min) and resuspended in 100 ml fresh medium. After 24-48 hours, the cells were harvested, centrifuged, and resuspended in culture medium at 2 million cells/ml.
LPS Stimulation of TNF Production by U937 Cells:
Compounds were prepared as 10 mM stock solutions in DMSO and diluted in culture medium to yield a final DMSO concentration of 0.1% in the cell assay. LPS (E coli, 100 ng/ml final concentration) was then added at a volume of 0.02 ml. After 4 hour incubation at 37° C., the amount of TNF-α released in the culture medium was quantitated by ELISA. Inhibitory potency is expressed as IC50 (μM).
In vitro whole cell assay for measuring the ability of the compounds to inhibit TNF production in human U937 cells stimulated with LPS are shown in the column identified as: • “U937 Cell IC50, uM or % inhib @ conc., (uM)”

human p38 kinase alpha = target: T1, human p38 kinase alpha (Homo sapiens, UniProt Q16539); experiment: p38 kinase in vitro assay, phosphorylation of biotinylated PHAS-I with 32P-ATP; assay type: biochemical; conditions: for P38 alpha kinase % inhib @ conc. (uM) / P38 alpha kinase % inhib @ conc.: @ 1.0 uM
T1 construct: GST (N, cleaved yes); made in house; host or cells: E. coli DH10B
T1 sequence (Q16539 whole entry): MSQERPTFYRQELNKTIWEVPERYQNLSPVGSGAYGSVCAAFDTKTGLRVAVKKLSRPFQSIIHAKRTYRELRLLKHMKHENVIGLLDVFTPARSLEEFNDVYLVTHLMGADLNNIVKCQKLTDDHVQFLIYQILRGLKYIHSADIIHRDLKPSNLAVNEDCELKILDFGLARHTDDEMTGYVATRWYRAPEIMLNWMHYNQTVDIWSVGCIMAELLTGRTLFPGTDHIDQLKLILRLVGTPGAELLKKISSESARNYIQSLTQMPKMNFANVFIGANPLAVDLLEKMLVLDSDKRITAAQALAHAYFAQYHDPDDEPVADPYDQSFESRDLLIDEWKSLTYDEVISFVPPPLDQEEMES

[2] = Homo sapiens, TNF production, U937 cells stimulated with LPS
[3] = TNF production, U937 cells stimulated with LPS
[4] = Table 5, LPS-stimulated U937 cells, TNF-α, read-out: U937 Cell Assay IC50
[5] = in vitro P38-alpha kinase inhibition, read-out: P38 alpha kinase IC50
[6] = in vitro P38-alpha kinase, read-out: P38 alpha kinase IC50

Compound: CC1(C)C2CCC1(CS(=O)(=O)NCc1[nH]nc(-c3ccc(F)cc3)c1-c1ccncc1)C(=O)C2 (centres unmarked) [Example B-0226]
- inhibition at 1 µM [1, 2]: 20%

Compound: CC1(C)C2CCC1(CS(=O)(=O)NCc1[nH]nc(-c3ccc(F)cc3)c1-c1ccncc1)C(=O)C2 (centres unmarked) [Example B-0227]
- U937 Cell % inhib @ conc. [1, 3]: 1.0% @

- IC50 ([1]; Homo sapiens, U-937, TNF production, human U937 cells stimulated with LPS, read-out: U937 Cell IC50): > 1000 nM
Compound: O=C(NCCCc1[nH]nc(-c2ccc(F)cc2)c1-c1ccncc1)NCCc1c[nH]cn1 [Example B-1306]

Compound: O=C(NC(Cc1ccccc1)c1[nH]nc(-c2ccc(F)cc2)c1-c1ccncc1)c1ccncc1 (centres unmarked) [Example B-0854]
- U937 Cell % inhib @ conc. (uM) [1, 3]: 25.0% @

Compound: O=C(NCc1[nH]nc(-c2ccc(F)cc2)c1-c1ccncc1)c1ccc(F)cc1C(F)(F)F [Example B-0062]
- U937 Cell % inhib @ conc. [1, 3]: 36.0% @

Compound: Cc1cccc(C(=O)NCc2[nH]nc(-c3ccc(F)cc3)c2-c2ccncc2)c1 [Example B-0290]
- inhibition at 1 µM [1, 2]: 44%

Compound: O=C(NCCCc1[nH]nc(-c2ccc(F)cc2)c1-c1ccncc1)NCc1ccccn1 [Example B-1304]
- inhibition at 1 µM ([1]; Homo sapiens, TNF production, LPS-stimulated U937 cells): 10%

- IC50 [1, 4]: 1050 nM
Compound: Cc1ccc(-c2n[nH]c(C)c2-c2ccncc2)c(C)c1 [Example A-31]

- IC50 [1, 4]: 99 nM
Compound: Cc1[nH]nc(-c2ccc(N(C)C)cc2)c1-c1ccncc1 [Example A-37]

Compound: CC(NC(=O)c1ccc(Cl)cc1Cl)c1[nH]nc(-c2ccc(F)cc2)c1-c1ccncc1 (centres unmarked) [Example B-0693]
- U937 Cell % inhib @ conc. (uM) ([1]; TNF production in human U937 cells stimulated with LPS): 28.0% @

- P38 alpha kinase % inhib @ conc. (uM) (human p38 kinase alpha): 79.0% @
Compound: CCOC(=O)NCCc1[nH]nc(-c2ccc(F)cc2)c1-c1ccncc1 [Example B-1054]

- IC50 (human p38 kinase alpha; [5]): 32 nM
Compound: CC(NS(=O)(=O)c1cccs1)c1[nH]nc(-c2ccc(F)cc2)c1-c1ccncc1 (centres unmarked) [Example B-0575]

- IC50 (human p38 kinase alpha; [5]): 920 nM
Compound: O=C(NC(Cc1ccccc1)c1[nH]nc(-c2ccc(F)cc2)c1-c1ccncc1)C1CCCN1 (centres unmarked) [Example B-0750]

- P38 alpha kinase % inhib @ conc. (human p38 kinase alpha): 77.0% @
Compound: O=S(=O)(NCCCc1[nH]nc(-c2ccc(F)cc2)c1-c1ccncc1)c1ccccc1F [Example B-1197]

- IC50 (human p38 kinase alpha; [6]): 11000 nM
Compound: Cc1c(-c2ccncc2)c(-c2ccc(F)cc2)nn1CC(=O)NCCC#N [Example B-2314]

- IC50 (human p38 kinase alpha; [6]): 53 nM
Compound: O=C(NCCCc1[nH]nc(-c2ccc(F)cc2)c1-c1ccncc1)c1ccc(F)c(F)c1 [Example B-1330]

- IC50 (human p38 kinase alpha; [5]): < 100 nM
Compound: COc1ccc(Cl)cc1S(=O)(=O)NCCc1[nH]nc(-c2ccc(F)cc2)c1-c1ccncc1 [Example B-1106]

- IC50 (human p38 kinase alpha; [6]): 12900 nM
Compound: N#Cc1ccccc1S(=O)(=O)NCCCc1[nH]nc(-c2ccc(F)cc2)c1-c1ccncc1 [Example B-1255]

- IC50 (human p38 kinase alpha; [5]): 470 nM
Compound: CC(NS(=O)(=O)c1ccc(S(=O)(=O)c2ccccc2)s1)c1[nH]nc(-c2ccc(F)cc2)c1-c1ccncc1 (centres unmarked) [Example B-0665]

- IC50 (human p38 kinase alpha; [5]): 730 nM
Compound: O=C(NCCc1[nH]nc(-c2ccc(F)cc2)c1-c1ccncc1)c1ccc(F)cc1F [Example B-1152]

- P38 alpha kinase % inhib @ conc. (human p38 kinase alpha): 76.0% @
Compound: CN(C(=O)NCCCc1[nH]nc(-c2ccc(F)cc2)c1-c1ccncc1)c1ccccc1 [Example B-1214]

- IC50 (human p38 kinase alpha; [5]): < 100 nM
Compound: O=S(=O)(NCCc1[nH]nc(-c2ccc(F)cc2)c1-c1ccncc1)c1cccc2nonc12 [Example B-1105]

- P38 alpha kinase % inhib @ conc. (human p38 kinase alpha): 89.0% @
Compound: CCN(CC)C(=O)NCCCc1[nH]nc(-c2ccc(F)cc2)c1-c1ccncc1 [Example B-1225]

- P38 alpha kinase % inhib @ conc. (uM) (human p38 kinase alpha): 69.0% @
Compound: O=C(NCCc1[nH]nc(-c2ccc(F)cc2)c1-c1ccncc1)c1ccncc1 [Example B-1006]

- P38 alpha kinase % inhib @ conc. (uM) (human p38 kinase alpha): 66.0% @
Compound: O=C(NCCCc1[nH]nc(-c2ccc(F)cc2)c1-c1ccncc1)c1ccc(I)cc1 [Example B-1168]

- IC50 (human p38 kinase alpha; Table 8, 1% DMSO, read-out: p38α Kinase Assay IC50): 12 nM
Compound: Clc1ccc(-c2[nH]nc(N3CCNCC3)c2-c2ccncc2)cc1 [Example A-328, 1-[5-(4-chlorophenyl)-4-(4-pyridinyl)-1H-pyrazol-3-yl]piperazine]
